# Assay results taken from PMC11124341, “4-Hydroxybenzoic Acid-Based Hydrazide–Hydrazones as Potent Growth Inhibition Agents of Laccase-Producing Phytopathogenic Fungi That Are Useful in the Protection of Oilseed Crops” (Molecules, 2024).
# Where two headings read alike, the source gives them in different places.
# Tests used:
# Mahlavu line = system: Mahlavu line; design: method as in PMID 26695731; conditions: cited from earlier work
# hepatitis C virus (HCV) = system: hepatitis C virus (HCV); design: method as in PMID 26695731; conditions: read-out: EC50 against HCV; cited from earlier work
# Balb/3T3 cells = test: Antiproliferative assay in vitro (SRB); assay type: cell-based, mouse; conditions: read-out: Average IC50 ± SD, Balb/3T3 line
# Experimental: (§1) Antiproliferative tests were performed on a normal human breast cell line, MCF-10A, and a mouse embryonic fibroblast: Balb/3T3. Both cell lines were obtained from the American Type Culture Collection (Rockville, MD, USA). The cell lines were maintained in the Institute of Immunology and Experimental Therapy, Wroclaw, Poland. MCF-10A cells were cultured in the F-12 nutrient mixture (Gibco, Scotland, UK), supplemented with 5% horse serum (Gibco, Scotland, UK), […] (Vibrio cholerae Pacini), 10 μg/mL of hydrocortisone and 20 ng/mL of human epidermal growth factor (all from Sigma-Aldrich, Chemie GmbH, Steinheim, Germany). Balb/3T3 cells were cultured in Dulbecco medium (Gibco, Darmstadt, Germany) supplemented with 10% fetal bovine serum (Thermo Fisher Scientific, Waltham, MA, USA) and 2 mM l-glutamine (Sigma-Aldrich, St. Louis, MO, USA). All culture media contained antibiotics: 100 U/mL penicillin (Sigma-Aldrich, St. Louis, MO, USA) and 100 µg/mL streptomycin (Polfa-Tarchomin, Warsaw, Poland). Both cell lines were cultured during the entire experiment in a humid atmosphere at 37 °C and 5% CO2. Amistar 250 SC (fungicide) with active compound azoxystrobin was provided by the Institute of Soil Science and Plant Cultivation, National Research Institute in Pulawy, Department of Weed Science and Tillage Systems in Wroclaw, Poland […].
# (§2) Twenty-four hours prior to the applications of the tested compounds, MCF-10A and Balb/3T3 cells were plated in 96-well plates at a density of 10^4 cells per well and cultured at 37 °C in a humid atmosphere saturated with 5% CO2 for 24 h. Stock solutions of the compounds were prepared ex tempore for each test by dissolving in DMSO. The cells were also exposed to the reference drugs: cis-platin (Accord, London, UK) (10–0.01 µg/mL) and DMSO (Sigma-Aldrich) (at the concentrations corresponding to those in the tested agent dilutions). The solutions were then diluted in culture medium RPMI 1640 + Opti-MEM (1:1) (both from Gibco, Scotland, UK), supplemented with 2 mM l-glutamine, 5% fetal bovine serum (all from Sigma-Aldrich Chemie GmbH, Steinheim, Germany). An assay was performed after 72 h of exposure to the tested compounds 13, 17, 18, 19, 25, 27, 30, 4-hba, 4-hbah, and 3,4,5-hba (0.5, 5.0, 50, and to 500 µM) and azoxystrobin fungicide (0.05, 0.5, 5.0 and 50 µM). The antiproliferative effect in vitro was determined by the SRB method (sulforhodamine B colorimetric assay). The optical densities of the samples were measured on the Synergy H4 photometer (BioTek Instruments, Winooski, VT, USA) at 540 nm. The results were calculated as 50% inhibitory concentration (IC50), namely the dose of the tested compound inhibiting proliferation of the tested cells by 50% as compared to the untreated control cells, in the Prolab-3 system based on Cheburator 0.4 software using the two-point method. Each test was repeated 3–5 times.
# (§3) Cytotoxicity was performed on two normal cell lines: MCF -10A and Balb/3T3, using as controls cis-platin in the concentrations of 0.03 32, 0.3 32, 3.32 and 33.2 µM and azoxystrobin fungicide in the […]
# (§4) were tested in the concentrations of 0.5, 5.0, 50, and 500 µM. The relation of compound concentration […]
# (§5) Further, a comparison of the influence of each tested concentration in the group of tested compounds on cell lines was illustrated in Figure S130 a (MCF-10A) and b (Balb/T3T).
# (§6) Table S4. Cytotoxicity results for compounds 13, 17, 18, 19, 25, 27, and 30 investigated on normal mammalian lines: MCF -10A and B alb/3T3 using Azoxystrobin (fungicide) and cis-platin as reference compounds.
# (§7) Cytotoxicity profile presented as proliferation inhibition, % (y -axis) in the function of compound concentration, […]
# (§8) Structure MCF-10A Balb/3T3
# (§9) Proliferation inhibition [%] […]
# MCF-10A cells = test: Antiproliferative assay in vitro (SRB); assay type: cell-based, human; conditions: read-out: Average IC50 ± SD, MCF-10A line
# Experimental: as §1, §2, §3, §4, §5, §6, §7, §8, §9
# S. sclerotiorum = conditions: cited from earlier work
# B. cinerea [1] = conditions: cited from earlier work
# Candida = system: Candida; design: method as in PMID 23142671; conditions: cited from earlier work
# [2] = system: acetylcholinesterase (AChE); design: method as in PMID 33668452; conditions: cited from earlier work
# [3] = system: Botrytis cinerea strain FBc05; test: In vitro antifungal activity, mycelial growth inhibition on PDA medium; assay type: cell-based; conditions: Botrytis cinerea, FBC05; screening at basal 50 µg/mL, PDA medium, mean ± SD of three determinations; read-out: fungal growth inhibition, B. cinerea
# Experimental: (§10) The cultures of Botrytis cinerea strain FBc05 and Sclerotinia sclerotiorum strain FSc10 were obtained from the collection of the Division of Plant Pathology and Mycology at the Department of Plant Protection of Wroclaw University of Environmental and Life Sciences (Poland). Cerrena unicolor (Bull.ex.Fr.) Murr, strain no. 139, originated from the culture collection of the Department of Biochemistry, University of Lublin (Poland). The stock cultures were maintained on potato dextrose agar at +4 °C and periodically transferred to a fresh medium.
# (§11) Prior to the fungicidal activity assay of hydrazide–hydrazones 1–35, we considered ethanol and DMSO as potential dissolution media for tested compounds. […] Furthermore, a very important aspect of biological testing is the careful selection of organic solvents. These are typically used, e.g., methanol, ethanol, acetone, and DMSO, and may be highly toxic for microorganisms in even very low concentrations, such as 1% (v/v). Ethanol and DMSO with a final concentration between 0.1 and 1.0% (v/v) in a PDA medium were used and applied to evaluate the inhibition growth of B. cinerea, S. sclerotiorum, and C. unicolor (see Supplementary Materials). The following procedure was applied to the microorganism testing. The assays of fungi inhibition growth were performed at a basal concentration of 50 µg/mL for all compounds, and detailed experiments were extended for testing between 0 and 50 µg/mL (0, 6.25, 12.5, 25.0, and 50.0 µg/mL) for selected compounds. The tests were carried out on Petri dishes (diameter 60 mm) with PDA medium containing appropriate compound, co-solvent control, and hydrazide–hydrazone dissolved in co-solvent assay. A piece of mycelium with a 5 mm edge taken from the outer edge of the growing fungi on the PDA plate with co-solvent was transferred to a central part of the PDA plate with the examined compound. The plates thus inoculated were incubated at 22 °C in the dark for a time when the control plate containing only the co-solvent was covered entirely with the tested microorganism. For B. cinerea and S. sclerotiorum, the test took 3 days, and for C. unicolor, it took 7 days. Each assay was performed at least in triplicate. […] Model parameters c and e were estimated using the nonlinear least-squares method. Parameters d and b (with two exceptions) were fixed and assumed to be equal. Based on estimated parameters, the values of IC50 were determined. […] The IC50 values were calculated only in cases when the model predicted a decrease in growth rate by more than 50%.
# (§12) In vitro antifungal activity
# (§13) Prior to the fungicidal activity assay of hydrazide-hydrazones 1–35, we considered ethanol (EtOH) and DMSO as potential dissolution media for tested compounds.
# (§14) EtOH and DMSO with a final concentration between 0.1–1.0% (v/v) in a PDA medium were applied to evaluate the inhibition growth of B. cinerea, S. sclerotiorum, and C. unicolor (see Table S3). The following procedure was applied to the microorganism testing with the hydrazide-hydrazones. The assays of fungi inhibition growth were performed at a basal concentration of 50 µg/mL for all compounds, and detailed experiments were extended for testing selected molecules 18, 19, 27, […]
# (§15) Table S2. In vitro antifungal activity for DMSO and ethanol co-solvents.
# [4] = system: Cerrena unicolor strain no. 139; test: as above; assay type: cell-based; conditions: Cerrena unicolor, NO.139; screening at basal 50 µg/mL, PDA medium, mean ± SD of three determinations; read-out: fungal growth inhibition, C. unicolor
# Experimental: as §10, §11, §12, §13, §14, §15
# [5] = system: Sclerotinia sclerotiorum strain FSc10; test: as above; assay type: cell-based; conditions: screening at basal 50 µg/mL, PDA medium, mean ± SD of three determinations
# Experimental: as §10, §11, §12, §13, §14, §15
# [6] = system: Fusarium oxysporum Schltdl.; design: method as in PMID 24582134; conditions: cited from earlier work
# Rhizopus oryzae = system: Rhizopus oryzae; design: method as in PMID 24582134; conditions: cited from earlier work
# B. cinerea [7] = system: B. cinerea; design: method as in PMID 24582134; conditions: cited from earlier work
# [8] = system: Alternaria alternata (Fr.) Keissl; design: method as in PMID 24582134; conditions: cited from earlier work
# MPO (myeloperoxidase) = molecular target: MPO (myeloperoxidase); design: method as in PMID 32278712; conditions: cited from earlier work
compound,measurement,setting,value
O=C(NN=Cc1ccccn1)c1cc(-c2ccc(F)cc2F)ccc1O [XI],EC50,Mahlavu line,4.74 µM
same,EC50,hepatitis C virus (HCV),3.9 µM
"O=C(O)c1cc(O)c(O)c(O)c1 [3,4,5-hba, gallic acid, reference compound]",IC50,"Balb/3T3 cells; Mus musculus, BALB/3T3, 72 h",163 ± 1.95 µM
same,IC50,"MCF-10A cells; Homo sapiens, MCF-10A, 72 h",174 ± 14.3 µM
"N.N.[Cl][Pt][Cl] [Cis-platin, reference compound]",IC50,"Balb/3T3 cells; 72 h exposure, SRB method",9.8 ± 1.93 µM
same,IC50,"MCF-10A cells; 72 h exposure, SRB method",9.27 ± 1.63 µM
"CC1N[C@H](C(=O)NN=Cc2ccc(C(C)(C)C)cc2)Cc2c1[nH]c1ccccc21 (stereo partly drawn) [N′-(4-tert-butyl-benzylidene)-(3S)-1-methyl-2,3,4,9-tetra-hydro-1H-pyrido [3,4-b]indole-3-carbohydrazide]",growth inhibition of S. sclerotiorum,S. sclerotiorum,more than 80%
same,growth inhibition of B. cinerea,B. cinerea [1],more than 80%
"CC(=O)N1CCN(c2ccc(OCC3COC(Cn4ccnc4)(c4ccc(Cl)cc4Cl)O3)cc2)CC1 (centres unmarked) [ketoconazole, reference compound]","MIC, anticandidal activity",Candida,1 to 31 µg/mL
"Cc1ccc(C(=O)ON=C2C=CC(=NNC(=O)c3ccccc3)C=C2)cc1 [N′-(4-{[(4-methylbenzoyl)oxy]imino}cyclohexa-2,5-dien-1-ylidene)benzohydrazide]","restriction of mycelium growth, B. cinerea",B. cinerea [1],35%
"Cn1cc(C(=O)N/N=C/c2cc3ccccc3[nH]2)c(=O)c2ccccc21 [(E)-N′-((1H-indol-2-yl)methylene)-1-methyl-4-oxo-1,4-dihydroquinoline-3-carbohydrazide]",S. sclerotiorum growth inhibition,S. sclerotiorum,more than 80%
O=C(N/N=C/c1ccccc1O)c1ccc(C(F)(F)F)cc1 [IX],BuChE/AChE selectivity,[2],18.6
"COc1cc(/C=N/NC(=O)c2ccc(O)cc2)c(O)c(CO)c1 [compound 26, 4-Hydroxy-N′-[(E)-(2-hydroxy-3-hydroxymethyl-5-methoxyphenyl)methylidene]benzohydrazide]",inhibition of growth at 50 µg/mL,[3],3.2 ± 0.5%
same,inhibition of growth at 50 µg/mL,[4],54.6 ± 3.1%
same,"fungal growth inhibition, S. sclerotiorum",[5],n.o.
same,melting point,,219 to 220 °C
"CO/C=C(/C(=O)OC)c1ccccc1Oc1cc(Oc2ccccc2C#N)ncn1 [Azoxystrobin, reference compound]",IC50,"Balb/3T3 cells; 72 h exposure, SRB method",0.1 ± 0.03 µM
"O=C(NN=Cc1cn(-c2ccccc2Cl)nn1)c1ccccc1 [((1-(2-chlorophenyl)-1H-1,2,3-triazol-4-yl)methylene)benzohydrazide]",activity against S. sclerotiorum,S. sclerotiorum; 25 µg/mL,inactive
Cc1ccc(C(C)C)c(O)c1 [thymol],"MIC (minimum inhibitory concentration), Fusarium oxysporum",[6],300 µg/mL
same,"MIC (minimum inhibitory concentration), Rhizopus oryzae",Rhizopus oryzae,450 µg/mL
same,"MIC (minimum inhibitory concentration), B. cinerea",B. cinerea [7],300 µg/mL
same,"MIC (minimum inhibitory concentration), Alternaria alternata",[8],400 µg/mL
O=C(N/N=C/c1cc(O)ccc1O)c1ccncc1 [X],IC50,MPO (myeloperoxidase),4.8 µM
O=C(N/N=C/c1ccc(O)cc1O)c1ccccc1 [compound 22],inhibition of growth at 50 µg/mL,[3],32 ± 2.9%
same,inhibition of growth at 50 µg/mL,[4],75.4 ± 6.2%
same,"fungal growth inhibition, S. sclerotiorum",[5],n.o.
same,melting point,,255 to 256 °C (dec.)
O=C(N/N=C/c1cc(O)c(O)cc1O)c1ccc(O)cc1 [compound 23],inhibition of growth at 50 µg/mL,[3],6.8 ± 2.5%
same,inhibition of growth at 50 µg/mL,[4],5.8 ± 2.7%
same,inhibition of growth at 50 µg/mL,"[5]; Sclerotinia sclerotiorum, FSC10, read-out: fungal growth inhibition, S. sclerotiorum",2.7 ± 0.4%
same,melting point,,253 °C (dec.)
"COc1ccc(/C=N/NC(=O)c2cn(C)c3ccccc3c2=O)cc1OC [(E)-N′-(3,4-dimethoxybenzylidene)-1-methyl-4-oxo-1,4-dihydroquinoline-3-carbohydrazide]",S. sclerotiorum growth inhibition,S. sclerotiorum,more than 80%
"CC1N[C@H](C(=O)NN=Cc2ccc(Cl)c(Cl)c2)Cc2c1[nH]c1ccccc21 (stereo partly drawn) [N′-(3,4-dichloro-benzylidene)-(3S)-1-methyl-2,3,4,9-tetrahydro-1H-pyrido[3,4-b]indole-3-carbohydrazide]",growth inhibition of S. sclerotiorum,S. sclerotiorum,more than 80%
same,growth inhibition of B. cinerea,B. cinerea [1],more than 80%
"COc1ccc2c3c1O[C@H]1C[C@@H](O)C=C[C@@]31CCN(C)C2 [galantamine, reference compound]",BuChE/AChE selectivity,[2],1.8
